Columns and labels:
Type in all cases: cell-based
Settings in all cases: HEK293 cells co-transfected with PPAR LBD-GAL4 and UAS-luciferase; 18-24 hrs treatment
[1] = biological target: T1, PPAR gamma (Homo sapiens, UniProt P37231); assay: Transfection assay for PPAR receptors (GAL4-LBD luciferase reporter in HEK293 cells), PPAR gamma
T1 construct: expressed in transfected cells; host or cells: HEK293
T1 sequence (P37231 238-503 limits assumed): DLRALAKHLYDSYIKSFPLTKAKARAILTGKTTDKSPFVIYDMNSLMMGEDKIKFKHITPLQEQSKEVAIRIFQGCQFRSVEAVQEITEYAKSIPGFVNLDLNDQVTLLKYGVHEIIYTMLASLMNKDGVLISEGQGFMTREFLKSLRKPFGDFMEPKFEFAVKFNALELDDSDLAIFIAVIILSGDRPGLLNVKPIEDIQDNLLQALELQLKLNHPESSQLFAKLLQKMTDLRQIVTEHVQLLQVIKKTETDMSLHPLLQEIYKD
Method: (§1) Transfection Assay Method for PPAR Receptors
(§2) HEK293 cells were grown in DMEM/F12 medium supplemented with 10% FBS and glutamine (Invitrogen) and incubated in a 5% CO2 incubator at 37° C. The cells were co-transfected using DMRIE-C reagent (Invitrogen) in serum free medium (Opti-MEM, Invitrogen) with two mammalian expression plasmids, one containing the DNA sequence coding for the ligand binding domains of either PPARα, γ or 6 fused to the yeast GAL4 DNA binding domain and the other containing the promoter sequence of the yeast GAL4 (UAS) fused to the firefly luciferase cDNA reporter. The next day, the medium was changed to DMEM/F12 medium supplemented with 5% charcoal treated serum (Hyclone) and glutamine. After 6 hrs the cells were trypsinized and seeded at a density of 50,000 cells/well into 96 well plates and incubated overnight as above. The cells were then treated with test compounds or vehicle and incubated for 18-24 hrs as above. Luciferase reporter activity was measured using the Steady-Glo Luciferase Assay Kit from Promega. DMRIE-C Reagent was purchased from GIBCO Cat. No. 10459-014. OPTI-MEM I Reduced Serum Medium was purchased from GIBCO (Cat. No. 31985). Steady-Glo Luciferase Assay Kit was purchased from Promega (Part# E254B).
(§3) A variety of example compounds have been made and tested, with a range of in vitro results. […]

[2] = biological target: T2, PPAR delta (Homo sapiens, UniProt Q03181); assay: Transfection assay for PPAR receptors (GAL4-LBD luciferase reporter in HEK293 cells), PPAR delta
T2 construct: expressed in transfected cells; host or cells: HEK293
T2 sequence (Q03181 211-439 limits assumed): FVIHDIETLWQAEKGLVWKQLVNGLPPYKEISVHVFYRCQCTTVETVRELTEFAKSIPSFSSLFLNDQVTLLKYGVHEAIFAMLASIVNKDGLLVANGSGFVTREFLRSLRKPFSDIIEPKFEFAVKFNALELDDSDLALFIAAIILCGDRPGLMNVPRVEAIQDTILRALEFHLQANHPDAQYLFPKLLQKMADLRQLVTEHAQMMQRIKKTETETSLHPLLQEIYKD
Method: as §1, §2, §3

[3] = biological target: T3, PPAR alpha (Homo sapiens, UniProt Q07869); assay: Transfection assay for PPAR receptors (GAL4-LBD luciferase reporter in HEK293 cells), PPAR alpha
T3 construct: expressed in transfected cells; host or cells: HEK293
T3 sequence (Q07869 239-466 limits assumed): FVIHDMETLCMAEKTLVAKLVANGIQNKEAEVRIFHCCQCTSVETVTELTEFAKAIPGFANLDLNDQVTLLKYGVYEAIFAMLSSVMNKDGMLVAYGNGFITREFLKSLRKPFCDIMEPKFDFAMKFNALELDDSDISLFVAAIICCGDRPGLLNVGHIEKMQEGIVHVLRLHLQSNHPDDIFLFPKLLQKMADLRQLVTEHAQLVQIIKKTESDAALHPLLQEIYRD
Method: as §1, §2, §3

C=C(COc1ccc(OC(F)(F)F)cc1)CSc1ccc(OC(C)(C)C(=O)O)c(C)c1 [Compound 2]
EC50 [1]: 899 nM | EC50 [2]: 41.5 nM | EC50 [3]: 900 nM

Source: patent US7875744B2, “4-((phenoxyalkyl)thio)-phenoxyacetic acids and analogs” (Janssen Pharmaceutica NV, priority 2004, dated 2011)
